{"source": "ChEMBL document CHEMBL5537122", "about": "“Design, synthesis, and biological evaluation of 4-(2-fluorophenoxy)-7-methoxyquinazoline derivatives as dual EGFR/c-Met inhibitors for the treatment of NSCLC” (Eur J Med Chem, 2024)", "key": {"[1]": {"assay": "Acute toxicity in KM mouse assessed as effect on glucose level at 100 mg/kg, IG qd administered for 7 days by automatic biochemical analyzer", "assay_type": "organism-based", "conditions": "in vivo, po, 168 h, time 7 day"}, "A549 [2]": {"tested_on": "A549", "assay": "Induction in apoptosis in human A549 cells overexpressing c-MET assessed as late apoptotic cells at 1 uM incubated for 24 hrs by Annexin V-FITC/Propidium Iodide staining based flow cytometry analysis (reference value: 7.59 %)", "assay_type": "functional"}, "A549 [3]": {"tested_on": "A549", "assay": "Induction in apoptosis in human A549 cells overexpressing c-MET assessed as late apoptotic cells at 2.5 uM incubated for 24 hrs by Annexin V-FITC/Propidium Iodide staining based flow cytometry analysis (reference value: 7.59 %)", "assay_type": "functional"}, "[4]": {"target": "Hepatocyte growth factor receptor (Homo sapiens, UniProt P08581)", "sequence (P08581 whole entry)": "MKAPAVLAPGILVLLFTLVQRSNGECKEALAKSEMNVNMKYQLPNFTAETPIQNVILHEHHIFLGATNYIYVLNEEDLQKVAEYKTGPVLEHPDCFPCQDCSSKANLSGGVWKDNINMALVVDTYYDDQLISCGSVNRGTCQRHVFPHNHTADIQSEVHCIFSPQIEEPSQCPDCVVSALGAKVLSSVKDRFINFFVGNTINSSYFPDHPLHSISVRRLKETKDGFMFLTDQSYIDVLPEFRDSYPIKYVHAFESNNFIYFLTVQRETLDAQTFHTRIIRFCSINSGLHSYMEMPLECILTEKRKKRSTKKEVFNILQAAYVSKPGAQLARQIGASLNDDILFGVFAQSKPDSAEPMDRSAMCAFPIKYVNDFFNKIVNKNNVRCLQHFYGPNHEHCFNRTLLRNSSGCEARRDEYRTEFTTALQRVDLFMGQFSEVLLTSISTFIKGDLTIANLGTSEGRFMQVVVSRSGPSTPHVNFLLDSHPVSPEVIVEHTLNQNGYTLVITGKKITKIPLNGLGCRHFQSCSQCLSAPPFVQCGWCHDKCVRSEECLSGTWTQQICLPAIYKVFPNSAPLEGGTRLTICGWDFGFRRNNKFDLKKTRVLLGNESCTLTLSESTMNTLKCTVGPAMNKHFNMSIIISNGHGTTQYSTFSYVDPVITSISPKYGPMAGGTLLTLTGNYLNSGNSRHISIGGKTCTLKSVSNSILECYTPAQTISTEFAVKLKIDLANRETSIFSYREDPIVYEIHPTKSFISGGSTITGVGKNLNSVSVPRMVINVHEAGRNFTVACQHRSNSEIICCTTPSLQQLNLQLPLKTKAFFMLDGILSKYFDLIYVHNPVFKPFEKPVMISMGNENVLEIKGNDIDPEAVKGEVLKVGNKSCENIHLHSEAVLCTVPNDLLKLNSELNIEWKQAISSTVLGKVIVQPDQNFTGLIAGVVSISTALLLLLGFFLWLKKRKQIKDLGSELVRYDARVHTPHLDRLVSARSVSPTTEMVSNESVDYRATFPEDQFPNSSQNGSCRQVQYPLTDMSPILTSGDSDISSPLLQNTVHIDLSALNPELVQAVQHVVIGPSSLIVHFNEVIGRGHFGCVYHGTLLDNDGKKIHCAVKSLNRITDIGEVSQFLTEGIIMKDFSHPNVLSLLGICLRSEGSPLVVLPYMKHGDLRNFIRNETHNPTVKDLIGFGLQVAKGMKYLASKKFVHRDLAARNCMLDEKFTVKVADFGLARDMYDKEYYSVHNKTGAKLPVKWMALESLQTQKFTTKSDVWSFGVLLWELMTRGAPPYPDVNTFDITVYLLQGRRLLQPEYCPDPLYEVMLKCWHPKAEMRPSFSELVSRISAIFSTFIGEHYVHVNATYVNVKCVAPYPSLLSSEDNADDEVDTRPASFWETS", "assay": "biochemical", "description": "Inhibition of N-terminal GST tagged human recombinant c-Met (956 to end residues) expressed in baculovirus infected Sf9 cells using Poly (4:1 Glu, Tyr) as substrate incubated for 60 mins in presence of ATP by ADP-Glo luminescent assay"}, "A549 [5]": {"tested_on": "A549", "assay": "Inhibition of colony formation in human A549 cells overexpressing c-MET at 2 uM preincubated for 48 hrs followed by media replacement for every 2 days for 14 days by crystal violet staining based microscopic analysis relative to control", "assay_type": "functional"}, "A549 [6]": {"tested_on": "A549", "assay": "Induction in apoptosis in human A549 cells overexpressing c-MET assessed as necrotic cells at 1 uM incubated for 24 hrs by Annexin V-FITC/Propidium Iodide staining based flow cytometry analysis (reference value: 3.22 %)", "assay_type": "functional"}, "[7]": {"target": "Mitogen-activated protein kinase 1 (Homo sapiens) (UniProt P28482)", "sequence (P28482 whole entry)": "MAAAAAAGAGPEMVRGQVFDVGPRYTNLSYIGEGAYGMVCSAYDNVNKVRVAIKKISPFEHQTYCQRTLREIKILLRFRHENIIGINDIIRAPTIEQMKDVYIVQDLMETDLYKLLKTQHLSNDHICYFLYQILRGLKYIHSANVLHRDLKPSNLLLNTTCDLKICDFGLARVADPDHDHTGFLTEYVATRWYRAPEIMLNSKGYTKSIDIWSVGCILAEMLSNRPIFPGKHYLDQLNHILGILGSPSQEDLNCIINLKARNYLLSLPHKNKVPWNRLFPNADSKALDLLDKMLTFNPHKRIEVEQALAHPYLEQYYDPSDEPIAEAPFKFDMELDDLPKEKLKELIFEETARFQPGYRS", "assay": "Inhibition of MAPK1 (unknown origin) at 10 uM"}, "A549 [8]": {"tested_on": "A549", "assay": "Induction of cell cycle arrest in human A549 cells overexpressing c-MET assessed as accumulation of cells at G2/M phase at 2.5 uM incubated for 24 hrs by RNase A/propidium iodide staining based flow cytometric analysis (reference value: 12.41 %)", "assay_type": "functional"}, "A549 [9]": {"tested_on": "A549", "assay": "Induction of cell cycle arrest in human A549 cells overexpressing c-MET assessed as accumulation of cells at G1/G0 phase at 1 uM incubated for 24 hrs by RNase A/propidium iodide staining based flow cytometric analysis (reference value: 49.24 %)", "assay_type": "functional"}, "[10]": {"assay": "Hepatotoxicity in KM mouse assessed as effect on alanine aminotransferase level at 100 mg/kg, IG qd administered for 7 days by automatic biochemical analyzer", "assay_type": "toxicity, organism-based", "conditions": "in vivo, po, 168 h, time 7 day"}, "[11]": {"assay": "Cardiotoxicity in KM mouse assessed as effect on lactate dehydrogenase level at 100 mg/kg, IG qd administered for 7 days by automatic biochemical analyzer", "assay_type": "toxicity, organism-based", "conditions": "in vivo, po, 168 h, time 7 day"}, "[12]": {"target": "Epidermal growth factor receptor (Homo sapiens, UniProt P00533)", "sequence (P00533 whole entry)": "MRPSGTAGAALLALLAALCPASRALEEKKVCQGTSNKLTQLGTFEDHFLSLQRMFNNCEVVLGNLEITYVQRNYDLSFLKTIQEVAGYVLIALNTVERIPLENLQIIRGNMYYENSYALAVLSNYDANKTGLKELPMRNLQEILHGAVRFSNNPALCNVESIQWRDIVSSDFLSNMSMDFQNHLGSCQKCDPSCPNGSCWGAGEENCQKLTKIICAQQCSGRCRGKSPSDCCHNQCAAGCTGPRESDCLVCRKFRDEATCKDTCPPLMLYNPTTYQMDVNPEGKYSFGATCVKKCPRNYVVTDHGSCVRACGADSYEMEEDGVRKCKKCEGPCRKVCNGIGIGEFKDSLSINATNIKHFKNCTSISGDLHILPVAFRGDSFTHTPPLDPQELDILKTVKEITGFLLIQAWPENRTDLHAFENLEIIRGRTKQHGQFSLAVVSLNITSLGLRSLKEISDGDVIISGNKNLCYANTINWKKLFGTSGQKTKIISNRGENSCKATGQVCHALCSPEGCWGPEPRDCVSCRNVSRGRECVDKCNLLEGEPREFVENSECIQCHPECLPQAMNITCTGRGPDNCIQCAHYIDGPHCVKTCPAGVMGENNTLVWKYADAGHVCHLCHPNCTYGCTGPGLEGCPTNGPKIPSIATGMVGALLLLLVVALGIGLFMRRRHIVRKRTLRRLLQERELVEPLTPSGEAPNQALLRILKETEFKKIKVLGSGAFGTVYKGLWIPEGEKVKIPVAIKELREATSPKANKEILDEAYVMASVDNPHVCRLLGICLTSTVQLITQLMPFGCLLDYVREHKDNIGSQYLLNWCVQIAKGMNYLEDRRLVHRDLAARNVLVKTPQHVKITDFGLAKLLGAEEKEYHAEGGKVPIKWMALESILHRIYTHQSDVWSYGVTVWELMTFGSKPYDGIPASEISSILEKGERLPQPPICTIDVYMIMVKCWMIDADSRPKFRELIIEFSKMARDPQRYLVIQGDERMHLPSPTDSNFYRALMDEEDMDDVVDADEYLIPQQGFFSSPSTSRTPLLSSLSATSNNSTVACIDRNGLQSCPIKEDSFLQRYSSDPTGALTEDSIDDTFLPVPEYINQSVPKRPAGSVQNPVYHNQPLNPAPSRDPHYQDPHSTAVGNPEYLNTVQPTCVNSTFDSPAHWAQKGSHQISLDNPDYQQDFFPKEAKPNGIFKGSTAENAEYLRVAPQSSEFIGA", "assay": "biochemical", "description": "Inhibition of N-terminal GST tagged human recombinant EGFR (695 to end residues) expressed in baculovirus infected Sf9 cells using Poly (4:1 Glu, Tyr) as substrate incubated for 60 mins in presence of ATP by ADP-Glo luminescent assay"}, "[13]": {"assay": "Cardiotoxicity in KM mouse assessed as effect on creatine kinase level at 100 mg/kg, IG qd administered for 7 days by automatic biochemical analyzer", "assay_type": "toxicity, organism-based", "conditions": "in vivo, po, 168 h, time 7 day"}, "A549 [14]": {"tested_on": "A549", "assay": "Induction of apoptosis in human A549 cells overexpressing c-MET assessed as reduction in red fluorescence intensity incubated for 24 hrs by JC-1 staining based fluorescence inverted microscopic analysis", "assay_type": "functional, cell-based", "conditions": "dose 1-2.5 µM"}, "NCI-H1975 [15]": {"tested_on": "NCI-H1975", "assay": "Induction in apoptosis in human NCI-H1975 cells assessed as necrotic cells at 1 uM incubated for 24 hrs by Annexin V-FITC/Propidium Iodide staining based flow cytometry analysis (reference value: 1.42 %)", "assay_type": "functional"}, "L02": {"tested_on": "L02", "assay": "Induction in apoptosis in human L02 cells assessed as early apoptotic cells at 1 uM incubated for 24 hrs by Annexin V-FITC/Propidium Iodide staining based flow cytometry analysis (reference value: 0.26 %)", "assay_type": "toxicity, cell-based", "conditions": "l02, 24 h"}, "NCI-H1975 [16]": {"tested_on": "NCI-H1975", "assay": "Induction in apoptosis in human NCI-H1975 cells assessed as viable cells at 1 uM incubated for 24 hrs by Annexin V-FITC/Propidium Iodide staining based flow cytometry analysis (reference value: 91.58 %)", "assay_type": "functional", "conditions": "read-out: Activity"}, "A549 [17]": {"tested_on": "A549", "assay": "Induction of cell cycle arrest in human A549 cells overexpressing c-MET assessed as accumulation of cells at S phase at 1 uM incubated for 24 hrs by RNase A/propidium iodide staining based flow cytometric analysis (reference value: 37.87 %)", "assay_type": "functional"}, "[18]": {"assay": "Induction in apoptosis in human L02 cells assessed as viable cells at 1 uM incubated for 24 hrs by Annexin V-FITC/Propidium Iodide staining based flow cytometry analysis (reference value: 92.75 %)", "assay_type": "toxicity, cell-based", "conditions": "read-out: Activity"}, "[19]": {"target": "Fibroblast growth factor receptor 4 (Homo sapiens) (UniProt P22455)", "sequence (P22455 22-802 limits assumed)": "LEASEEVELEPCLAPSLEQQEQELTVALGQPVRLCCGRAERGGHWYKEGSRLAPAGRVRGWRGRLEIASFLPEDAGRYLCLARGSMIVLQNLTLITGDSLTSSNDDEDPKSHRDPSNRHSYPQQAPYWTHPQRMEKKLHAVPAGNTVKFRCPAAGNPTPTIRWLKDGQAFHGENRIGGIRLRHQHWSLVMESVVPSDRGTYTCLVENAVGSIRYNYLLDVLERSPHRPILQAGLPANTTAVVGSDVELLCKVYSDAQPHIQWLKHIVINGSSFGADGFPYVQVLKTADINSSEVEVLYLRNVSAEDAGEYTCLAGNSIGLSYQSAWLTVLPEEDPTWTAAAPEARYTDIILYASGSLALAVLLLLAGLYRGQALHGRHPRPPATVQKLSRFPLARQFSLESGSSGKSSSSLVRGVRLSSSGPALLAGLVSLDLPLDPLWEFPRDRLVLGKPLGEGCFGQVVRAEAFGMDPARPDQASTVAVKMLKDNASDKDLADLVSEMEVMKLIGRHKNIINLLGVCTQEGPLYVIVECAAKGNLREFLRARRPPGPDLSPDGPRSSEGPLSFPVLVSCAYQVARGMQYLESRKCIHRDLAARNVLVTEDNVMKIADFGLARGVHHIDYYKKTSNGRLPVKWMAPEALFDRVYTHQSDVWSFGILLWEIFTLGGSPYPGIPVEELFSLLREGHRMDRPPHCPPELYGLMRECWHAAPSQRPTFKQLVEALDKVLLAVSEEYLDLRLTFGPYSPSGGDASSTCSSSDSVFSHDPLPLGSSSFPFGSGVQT", "assay": "Inhibition of FGFR4 (unknown origin) at 10 uM"}, "A549 [20]": {"tested_on": "A549", "assay": "Antitumor activity against human A549 cells overexpressing c-MET xenografted in BALB/c nude mouse assessed as tumor growth inhibition at 60 mg/kg, IG qod measured for 24 days relative to control", "assay_type": "functional", "conditions": "A549, po, 576 h, time 24 day, read-out: TGI"}, "PC-9": {"tested_on": "PC-9", "assay": "Antimigratory activity against EGF-induced cell migration in serum starved human PC-9 cells assessed as increase in width of artificial gap incubated for 24 hrs by wound healing assay", "assay_type": "functional, cell-based", "conditions": "dose 1-2.5 µM"}}, "note": "The source made the active and inactive calls. The calls are words filed in the database; no cut-off is given here.", "data": [{"smiles": "C=CC(=O)Nc1cc2c(Oc3ccc(NC(=O)n4c(=O)c(-c5ccccc5)c(C)n4C)cc3F)cccc2cc1OC", "values": [{"measurement": "Activity", "setting": "[1]", "value": "Non-Toxic"}, {"measurement": "Activity", "setting": "A549 [2]", "value": 12.12, "unit": "%"}, {"measurement": "Activity", "setting": "A549 [3]", "value": 22.82, "unit": "%"}, {"measurement": "IC50", "setting": "[4]", "value": 0.26, "unit": "nM"}, {"measurement": "inhibition at 2 µM", "setting": "A549 [5]", "value": "~100", "unit": "%"}, {"measurement": "Activity", "setting": "A549 [6]", "value": 6.61, "unit": "%"}, {"measurement": "inhibition", "setting": "[7]", "value": "inactive"}, {"measurement": "Activity", "setting": "A549 [8]", "value": 10.98, "unit": "%"}, {"measurement": "Activity", "setting": "A549 [9]", "value": 53.03, "unit": "%"}, {"measurement": "Activity", "setting": "[10]", "value": "Non-Toxic"}, {"measurement": "Activity", "setting": "[11]", "value": "Non-Toxic"}, {"measurement": "IC50", "setting": "[12]", "value": 99.8, "unit": "nM"}, {"measurement": "Activity", "setting": "[13]", "value": "Non-Toxic"}, {"measurement": "Activity", "setting": "A549 [14]", "value": "Dose-Dependent Effect"}, {"measurement": "Activity", "setting": "NCI-H1975 [15]", "value": 1.74, "unit": "%"}, {"measurement": "Activity", "setting": "L02", "value": 0.21, "unit": "%"}, {"measurement": "viability at 1 µM", "setting": "NCI-H1975 [16]", "value": 88.2, "unit": "%"}, {"measurement": "Activity", "setting": "A549 [17]", "value": 35.49, "unit": "%"}, {"measurement": "viability at 24 h, 1 µM", "setting": "[18]", "value": 91.9, "unit": "%"}, {"measurement": "inhibition", "setting": "[19]", "value": "inactive"}, {"measurement": "inhibition in vivo at 60 mg/kg", "setting": "A549 [20]", "value": 55.3, "unit": "%"}, {"measurement": "Activity", "setting": "PC-9", "value": "Dose-Dependent Effect"}]}]}
